9 compounds from PubChem BioAssay (NCI) can be followed below.

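Exposure lasted 48 hours, with cells grown in 96-well plates and compounds tested at five concentrations. Abbreviation: GI50, concentration required for 50% inhibition of growth. Definition used: TGI = concentration required for complete inhibition of growth.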 A value given as a limit tells only on which side of the number the result lay.

Some test systems named below: MALME-3M melanoma; MOLT-4 leukemia; NCI-H522 lung; SN12C renal; PC-3 prostate; OVCAR-8 ovarian; UO-31 renal; A498 renal; NCI-H226 lung; IGROV1 ovarian.
Holding throughout (assay): NCI tumour cell line growth inhibition, 48 h

As to `C/C(=C\c1csc(C)n1)[C@@H]1C[C@@H]2O[C@]2(C)CCC[C@H](C)[C@H](O)[C@@H](C)C(=O)C(C)(C)[C@@H](O)CC(=O)N1`, the GI50 is 0.000376 µM with MALME-3M melanoma; 0.000115 µM in the experiment with MOLT-4 leukemia; 7.57e-05 µM in the experiment on NCI-H522 lung; 0.214 nM in the experiment on SN12C renal; less than 0.01 nM in the experiment with PC-3 prostate; 0.000112 µM with OVCAR-8 ovarian. For the same compound, the GI50 in the experiment on UO-31 renal was 0.000126 µM; with A498 renal, 0.104 nM; in the experiment on NCI-H226 lung, 0.388 nM. For the same compound, the TGI is 0.000603 µM with MALME-3M melanoma; 0.000214 µM in the experiment on MOLT-4 leukemia; 0.00019 µM in the experiment on NCI-H522 lung; 0.000418 µM in the experiment on SN12C renal; less than 1e-05 µM with PC-3 prostate; 0.000184 µM in the experiment on OVCAR-8 ovarian. The TGI in the experiment with UO-31 renal is 0.000177 µM; in the experiment with A498 renal, 0.000215 µM; in the experiment with NCI-H226 lung, 0.000652 µM.

Take `COc1cc2c(Oc3ccc(-c4cnc(Nc5ccc(F)cc5)n(C)c4=O)cc3F)ccnc2cc1OCCCN1CCOCC1`: the GI50 in the experiment on MALME-3M melanoma was 0.291 µM; in the experiment with SN12C renal, 528 nM; in the experiment with PC-3 prostate, 2050 nM; in the experiment on OVCAR-8 ovarian, 1.87 µM; with UO-31 renal, 0.906 µM; with A498 renal it was 950 nM. Besides, the GI50 is 1160 nM in the experiment with NCI-H226 lung and 0.646 µM in the experiment on IGROV1 ovarian. Moreover, the TGI stood at 1.41 µM in the experiment with MALME-3M melanoma; 2.27 µM in the experiment with SN12C renal; 6.39 µM in the experiment with PC-3 prostate; 4.72 µM with OVCAR-8 ovarian; 2.21 µM with UO-31 renal; 2.46 µM in the experiment on A498 renal. Also, the TGI stood at 8.15 µM in the experiment with NCI-H226 lung and 2.33 µM in the experiment on IGROV1 ovarian.

In the case of `FC(F)(F)c1cccc(CNC2CCN(CCc3ccccc3)CC2)c1`, the GI50 with MALME-3M melanoma is 16 µM; in the experiment on MOLT-4 leukemia, 20.5 µM; with NCI-H522 lung it was 20.9 µM; in the experiment on SN12C renal, 55600 nM; with PC-3 prostate it was 32000 nM; in the experiment with OVCAR-8 ovarian, 18.2 µM. In addition, the GI50 in the experiment on UO-31 renal was 17 µM; with NCI-H226 lung it was 62400 nM; with IGROV1 ovarian, 55.9 µM. The TGI is 31 µM in the experiment on MALME-3M melanoma; 70.4 µM in the experiment with MOLT-4 leukemia; 44.4 µM in the experiment on NCI-H522 lung; greater than 100 µM with SN12C renal; greater than 100 µM in the experiment with PC-3 prostate; 43.8 µM in the experiment with OVCAR-8 ovarian. The TGI in the experiment on UO-31 renal, in the experiment with NCI-H226 lung and in the experiment with IGROV1 ovarian was greater than 100 µM in each case.

Regarding `CC(=O)O[C@H]1C[C@@H]2[C@@]3(C)CC[C@H]4C[C@@]4(C)[C@@H]3CC[C@@]2(C)C2=CCC3=C(COC3=O)[C@]21C`, the GI50 was 11 µM with MALME-3M melanoma; 33.5 µM in the experiment with MOLT-4 leukemia; 24.5 µM in the experiment with NCI-H522 lung; 18700 nM with SN12C renal; 18400 nM with PC-3 prostate; 19.9 µM in the experiment with OVCAR-8 ovarian. Further, the GI50 is 32.1 µM with UO-31 renal, 16000 nM in the experiment on NCI-H226 lung and 26.5 µM with IGROV1 ovarian. In addition, the TGI in the experiment on MALME-3M melanoma is 26.4 µM; in the experiment with MOLT-4 leukemia it was greater than 100 µM; in the experiment with NCI-H522 lung it was 84.1 µM; with SN12C renal, 38.3 µM; in the experiment on PC-3 prostate, 46.1 µM; with OVCAR-8 ovarian it was 65 µM. Besides, the figures for the TGI with UO-31 renal, with NCI-H226 lung and in the experiment with IGROV1 ovarian were greater than 100 µM, 32.6 µM and 78 µM, respectively.

Take `COc1ccc(-n2c(=O)c3ccccc3n(Cc3ccc(C(=O)NO)cc3)c2=O)cc1`: the GI50 is 1.58 µM in the experiment with MALME-3M melanoma; 3.21 µM in the experiment with MOLT-4 leukemia; 1.45 µM with NCI-H522 lung; 2080 nM with PC-3 prostate; 1.8 µM in the experiment on OVCAR-8 ovarian; 6.58 µM in the experiment on UO-31 renal. The GI50 in the experiment on A498 renal is 1090 nM; in the experiment with NCI-H226 lung it was 1560 nM. The TGI in the experiment on MALME-3M melanoma was 5.92 µM; with MOLT-4 leukemia, greater than 100 µM; in the experiment on NCI-H522 lung, 4.07 µM; with PC-3 prostate, 5.06 µM; with OVCAR-8 ovarian, 5.88 µM; in the experiment on UO-31 renal, 21.5 µM. For the same compound, the TGI with A498 renal amounted to 3.25 µM; in the experiment with NCI-H226 lung, 3.75 µM.

On to `CN(C)[C@@H]1C(=O)C(C(=O)NCc2nc3[nH]cnc(=S)c3[nH]2)=C(O)[C@@]2(O)C(=O)C3=C(O)c4c(O)cccc4[C@@](C)(O)[C@H]3C[C@@H]12`, for which the GI50 was greater than 100 µM with MALME-3M melanoma; 5.04 µM in the experiment with MOLT-4 leukemia; greater than 100 µM with NCI-H522 lung; 59900 nM in the experiment with SN12C renal; 29700 nM with PC-3 prostate; 6.78 µM with OVCAR-8 ovarian. Also, the GI50 with UO-31 renal is 3.69 µM; with A498 renal, greater than 100000 nM; in the experiment on IGROV1 ovarian, 16 µM. The TGI in the experiment on MALME-3M melanoma, in the experiment with MOLT-4 leukemia, in the experiment on NCI-H522 lung, in the experiment with SN12C renal, with PC-3 prostate and with OVCAR-8 ovarian was greater than 100 µM throughout. Besides, the TGI with UO-31 renal, in the experiment on A498 renal and with IGROV1 ovarian was greater than 100 µM throughout.

On to `CCCCCCCCCCN=C(N)c1ccc(N2CCN(c3ccc(C(N)=NCCCCCCCCCC)cc3)CC2)cc1`, for which the GI50 was 6.25 µM with MALME-3M melanoma; greater than 50 µM in the experiment with MOLT-4 leukemia; 3.75 µM with NCI-H522 lung; 2190 nM in the experiment on SN12C renal; 2940 nM in the experiment on PC-3 prostate; 2.62 µM in the experiment on OVCAR-8 ovarian. The GI50 in the experiment with UO-31 renal was 22.6 µM; with NCI-H226 lung, 7720 nM; in the experiment with IGROV1 ovarian, 2.83 µM. For the same compound, the TGI was 17 µM in the experiment with MALME-3M melanoma; greater than 50 µM in the experiment on MOLT-4 leukemia; greater than 50 µM in the experiment on NCI-H522 lung; 15.2 µM in the experiment on SN12C renal; 12.1 µM in the experiment with PC-3 prostate; greater than 50 µM with OVCAR-8 ovarian. The TGI in the experiment on UO-31 renal, with NCI-H226 lung and in the experiment with IGROV1 ovarian was greater than 50 µM each time.

As to `O=[N+]([O-])c1ccc(/C=C(/c2ccc([N+](=O)[O-])o2)S(=O)(=O)c2ccccc2)cc1`, the TGI in the experiment on MALME-3M melanoma was 87.5 µM; with MOLT-4 leukemia, 37.5 µM; in the experiment on NCI-H522 lung, greater than 100 µM; in the experiment on PC-3 prostate, greater than 100 µM; in the experiment with OVCAR-8 ovarian, greater than 100 µM; in the experiment on UO-31 renal, greater than 100 µM. Moreover, the figures for the TGI with NCI-H226 lung and with IGROV1 ovarian were 75 µM and greater than 100 µM, respectively.

With `COc1ccc(-c2c(Nc3ccccn3)nc3c(C4=CCCCC4)c(-c4ccccc4)[nH]n3c2=O)cc1`, the GI50 in the experiment on MALME-3M melanoma is 3.93 µM; in the experiment on NCI-H522 lung it was 3.55 µM; in the experiment with SN12C renal, 2700 nM; in the experiment on PC-3 prostate, 2170 nM; with OVCAR-8 ovarian it was 3.47 µM; with UO-31 renal, 2.19 µM. In addition, the values for the GI50 in the experiment with A498 renal, with NCI-H226 lung and in the experiment with IGROV1 ovarian were 2010 nM, 2780 nM and 3.5 µM, respectively. For the same compound, the TGI in the experiment with MALME-3M melanoma was 60.2 µM; with NCI-H522 lung, 23.9 µM; in the experiment with SN12C renal, greater than 100 µM; with PC-3 prostate, greater than 100 µM; in the experiment on OVCAR-8 ovarian, greater than 100 µM; with UO-31 renal, greater than 100 µM. For the same compound, the TGI with A498 renal was 15.4 µM; in the experiment on NCI-H226 lung, 17.8 µM; with IGROV1 ovarian it was 51.4 µM.
